Patent EP0696280B1, “SUBSTITUTED PYRROLIDIN-3-YL-ALKYL-PIPERIDINES USEFUL AS TACHYKININ ANTAGONISTS” (MERRELL PHARMACEUTICALS INC., priority 1993, dated 1994)
Where a name gives a salt, the structure may show the parent alone.

Assays:
[1] = test system: NKA-induced respiratory effects; assay: Antagonism of NKA aerosol induced respiratory effects in conscious guinea pigs (whole body plethysmography); assay type: in vivo, guinea pig; conditions: 20 min prior to NKA aerosol (0.05%); for DYSPNEA ONSET: mean and SEM
Experimental: In vivo experiments were performed using male Duncan Hartley guinea pigs (250-350g). Changes in conscious breathing patterns were monitored in four animals simultaneously using modified whole body plethysmography consisting of four small plexiglass boxes each connected to a reference box via Validyne DP 45-16 differential pressure transducers. The 4 boxes were equipped with an air supply line (also used for aerosol delivery) and an exhaust air line. Supply and exhaust lines were of the same length and narrow bore and arose from a common supply chamber and vented to a common exhaust chamber. This system was used to ensure that fluctuations in supply air and atmospheric pressure would remain in phase and be eliminated from the net signal by the differential pressure transducers. The analog pressure signals were digitalized via a Data Translation DT2821 A to D board. Data were collected at a rate of 100 samples/second/animal. Each cycle of pressure change was analyzed using the following parameters: rising and falling slope determined between minimum and maximum pressures, the ratio of rising over falling slope, and the magnitude of the change between initial trough pressure and peak cycle pressure. Using these values (and observing the animals) the pressure cycles were characterized into normal breaths, forced exhalations (apparent by abdominal heaving), significant respiratory events (SREs; usually coughs, less often sneezes or gasps which were characterized by transient, extremely large pressure increases which were distinguishable from noise) and movement/noise with a PCAT 286 running a System V UNIX operating system. Dyspnea was defined as a significant, sustained increase in plethysmograph pressure which was associated with an observable shift to labored breathing in the animal.
During the course of a typical experiment in which airway responsiveness to various bronchoconstricting agents was examined, aerosols were delivered for 19 min (0.33 ml/min) using a DeVilbiss Ultraneb 99 ultrasonic nebulizer and animals monitored during this time. Prior to nebulization, 1 min of resting breathing was collected to establish a baseline pressure. […] The vehicle for nebulization of all bronchoconstrictive agents was phosphate buffered saline (pH 7.4) which elicited no respiratory effects itself. Putative tachykinin antagonists were administered either (i.v.) 20 min prior to onset of aerosol exposure or orally 1 hour prior to onset (to guinea pigs after an overnight fast).
Table 6 illustrates the effects of the compounds of Example 3; Example 20A; and Example 5A on respiratory effects induced by NKA aerosol. […] These effects were dose dependent i.e. the higher the dose of compound, the greater attenuation of NKA-mediated effects. […]
Compounds were administered 20 min prior to initiation of NKA aerosol (0.05%). Values for each treatment represent the mean and SEM of data from 5-37 animals per dose.

[2] = molecular target: T1, NK-3 receptor (Cavia porcellus, UniProt P30098); assay: Antagonism of iodinated tachykinin binding to NK-3 receptor (125I-Bolton Hunter labeled Lys-4 eledoisin, guinea pig cerebral cortex membranes)
T1 construct: freshly collected guinea pig cerebral cortex; from tissue; host or cells: guinea pig cerebral cortex membranes
T1 sequence (P30098 1-440): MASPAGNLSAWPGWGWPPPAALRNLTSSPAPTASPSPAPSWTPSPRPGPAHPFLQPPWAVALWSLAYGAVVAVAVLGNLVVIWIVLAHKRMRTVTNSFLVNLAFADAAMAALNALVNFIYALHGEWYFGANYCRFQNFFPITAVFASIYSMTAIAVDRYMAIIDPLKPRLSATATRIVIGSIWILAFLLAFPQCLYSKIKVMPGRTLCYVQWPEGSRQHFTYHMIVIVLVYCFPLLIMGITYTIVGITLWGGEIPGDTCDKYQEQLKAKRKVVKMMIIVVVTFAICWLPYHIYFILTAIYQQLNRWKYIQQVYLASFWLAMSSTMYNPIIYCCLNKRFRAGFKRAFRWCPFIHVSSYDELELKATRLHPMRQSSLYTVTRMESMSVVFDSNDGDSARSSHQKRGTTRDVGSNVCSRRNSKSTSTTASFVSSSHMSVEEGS
Experimental: The NK1 receptor affinity of proposed tachykinin antagonists was devaluated in guinea pig lungs (Keystone Biologicals, Cleveland, OH), affinity for the NK2 receptor evaluated in HSKR-1 cells (which are mouse 3T3 fibroblasts expressing the human jejunal NK2 receptor) and NK-3 receptor affinity was evaluated in freshly collected guinea pig cerebral cortex. Tissues or cells were homogenized with a Polytron in 15 volumes of 50 mM Tris-HCl buffer (pH 7.4, 4°C) and centrifuged. The pellet was resuspended in Tris-HCl buffer and was centrifuged; the pellet was washed twice by resuspension. The final pellet was resuspended at a concentration of 40 mg/ml for tissues (guinea pig lung and cerebral cortex) and 20 mg/ml for cells in incubation buffer and remained at room temperature for at least 15 min prior to use. Receptor binding was initiated by addition of 250 µl membrane preparation in duplicate to 0.1 nM of the following radioligands: ^125I-Bolton Hunter Lys-3 labeled substance P; ^125iodohistidyl-1-neurokinin A; and ^125I-Bolton Hunter labeled Lys-4 eledoisin in a final volume of 500 µl of buffer containing 50 mM Tris-HCl (pH 7.4 at room temperature), 0.1% bovine serum albumin, 2 mM MnCl2, 40 µg/ml bacitracin, 4 µg/ml leupeptin and chymostatin, 1 µM thiorphan and various doses of the putative tachykinin antagonists. Incubations were performed at room temperature for 90 min (NK1 receptor assays) or 2 hr (NK2 and NK3 receptor assays); binding was terminated by addition of 50 mM Tris-HCl buffer (pH 7.4, 4°C) and filtration under vacuum through GF/B filters presoaked with 0.1% polyethyleneimine (NK1 receptor assays) or 0.5% bovine serum albumin (NK2 and NK3 receptor assays). Filter bound radioactivity was quantitated in a gamma counter. Nonspecific binding was defined as binding in the presence of 1 µM substance P, neurokinin A, or eledoisin. Specific binding was calculated by subtracting nonspecific binding from total binding. Competition of iodinated SP, NKA, or eledoisin binding by test compounds or standards was expressed as a percentage of this maximum competition. IC50 values (concentration required to inhibit 50% of receptor binding) were generated for each of the test compounds by nonlinear regression using an iterative curve fitting program (GraphPAD Inplot, San Diego, CA).

[3] = test system: SP-induced plasma protein extravasation; assay: Antagonism of SP-induced plasma protein extravasation in guinea pig trachea (Evans Blue dye); assay type: in vivo; conditions: Figure 2; i.v.; result in words
Experimental: SP-induced protein leakage through postcapillary venules was assessed by measuring Evans Blue dye accumulation in guinea pig trachea. Animals were anesthetized with pentobarbital then injected with Evans Blue dye (20 mg/kg, i.v., prepared in 0.9% NaCl solution). One minute after dye administration, the antagonist was administered (i.v.) followed by SP (0.3 nmole/kg, i.v.) and, after 5 min, excess dye removed from the circulation by transcardiac perfusion with 50 ml 0.9% NaCl solution. The trachea and primary bronchi were removed, blotted dry and weighed. Dye quantitation was performed spectrophotometrically (620 nm) after extracting tissues in formamide for 24 hr at 50°C. Values were subtracted from background (dye only, no agonist). ED50 (dose of compound which inhibits SP-induced plasma protein extravasation by 50%) was calculated from linear regression analysis.
Values are mean (95% confidence limits). Compounds were injected intravenously 2 min prior to SP administration. ED50 values are based on at least 3 doses; at least 4 animals were used per dose.

SMILES	DYSPNEA INCIDENCE ([1]; 5 mg/kg)	DYSPNEA ONSET ([1]; 5 mg/kg) [s]	DYSPNEA INCIDENCE ([1]; 10 mg/kg)	DYSPNEA ONSET ([1]; 10 mg/kg) [s]	IC50 [2] [µM]	antagonism of SP-induced plasma protein extravasation in guinea pig trachea [3]	affinity for NK3 receptors ([2]; result in words)
COc1cccc(OC)c1C(=O)N1CCC(CCN2CCC(C(N)=O)(c3ccccc3)CC2)(c2ccc(Cl)c(Cl)c2)C1 (racemic) [Example 5A, 1-[2-[3-(3,4-dichloro-phenyl-3-yl)-1-(2,6-dimethoxy-benzoyl)-pyrrolidin-3-yl]-ethyl]-4-phenyl-piperidine-4-carboxylic acid amide hydrochloride]	60% (3/5)	654 ± 37	54% (7/13)	608 ± 65	–	–	–
COc1cc(C(=O)N2CCC(CCN3CCC(C(N)=O)(c4ccccc4)CC3)(c3ccc(Cl)c(Cl)c3)C2)cc(OC)c1OC (racemic) [Example 3A, 1-[2-[3-(3,4-dichloro-phenyl-3-yl)-1-(3,4,5-trimethoxy-benzoyl)-pyrrolidin-3-yl]-ethyl] -4-phenyl-piperidine-4-carboxylic acid amide hydrochloride]	–	–	–	–	0.0542	–	–
COc1cc(C(=O)N2CCC(CCN3CCC(C(N)=O)(c4ccccc4)CC3)(c3ccc(Cl)c(Cl)c3)C2)cc(OC)c1OC (centres unmarked) [Example 3, 1-[2-[3-(3,4-dichloro-phenyl)-1-(3,4,5-trimethoxy-benzoyl)-pyrrolidin-3-yl]-ethyl]-4-phenyl-piperidine-4-carboxylic acid amide]	86% (6/7)	394 ± 32	60% (6/10)	801 ± 104	–	dose related antagonism	high affinity
